The first experiment relates to HMPV clinical isolate A2 strain TN 94-49. Kind of experiment: HMPV antiviral assay, Method 2 (LLC-MK2 cells with CP-100-356, ATP-Lite). The experiment is classed as cell-based. As to conditions: human metapneumovirus, 168 h; hMPV A2 TN/94-49, LLC-MK2 cells with 4 μM CP-100-356, 7 days, ATP-Lite. A digest of the protocol: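 EC50 comes from a four-parameter fit of percent cell viability (ATP-Lite, normalized to virus-only and cell-only wells) after 7 days at 37 °C. Infection used HMPV A2 TN 94-49 at MOI 0.16 in LLC-MK2 cells, with 2 μM P-gp inhibitor CP-100-356 and 2 μg/mL TPCK-trypsin final; dose range 200 nM top, 2.5-fold, 10 points, duplicate.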
For orientation: EC50 means the concentration that produces a half-maximal response. Consider `COc1cc(C(=O)NC[C@@](O)(c2ccccc2)c2cc3c(c(-n4ncc5c(F)cccc54)n2)OC[C@]3(C)C(N)=O)cc2cn(C(F)F)nc12` [Example 636], for which the EC50 is under 200 nM.

Still in this experiment, the particulars now being: human metapneumovirus; hMPV A2 TN/94-49, LLC-MK2 cells with CP-100-356, Method 2.
`COc1cc(C(=O)NC[C@](O)(c2cc3c(c(-c4ccnc(Cl)c4Cl)n2)OC[C@]3(C)C(N)=O)C2(F)CC2)cc2cn(C(F)F)nc12` [Example 521] showed an EC50 of under 200 nM.

As for `COc1cc(C(=O)NC[C@](O)(c2cc3c(c(-c4ccnc(Cl)c4Cl)n2)OC[C@]3(C)C(N)=O)C2(F)CC2)cc2cn(C3(F)CC3)nc12` [Example 519], the EC50 was under 200 nM.

With `CC(C)c1nc2ccc(C(=O)NC[C@@](O)(c3ccccc3)c3cc4c(c(-c5cc(Cl)c(F)cc5F)n3)OC[C@]4(C)C(N)=O)cc2o1` [Example 224], the EC50 was over 200 nM.

As to `COc1cc(C(=O)NC[C@](O)(c2cc3c(c(-c4c(F)cncc4F)n2)OC[C@]3(C)C(N)=O)C2CC2)cc2cn(C3CC3)nc12` [Example 433], the EC50 was under 200 nM.

Consider `COc1cc(C(=O)NC[C@](O)(c2cc3c(c(-c4cc(C5CC5)ncc4F)n2)OC[C@]3(C)C(N)=O)C2CC2)cc2cn(C3CC3)nc12` [Example 432], for which the EC50 was under 200 nM.

The molecule `COc1cc(C(=O)NC[C@@](O)(c2cccc(F)c2)c2cc3c(c(-c4ccnc(C(F)F)c4Cl)n2)OC[C@]3(C)C(N)=O)cc2cn(C3(F)CC3)nc12` [Example 566] yielded an EC50 of under 200 nM.

For another experiment the test system is unchanged. Kind of experiment: HMPV antiviral assay, Method 1 (LLC-MK2 cells, ATP-Lite). The experiment is classed as cell-based. As to conditions: human metapneumovirus, hMPV A2 TN/94-49, LLC-MK2 cells. As to the method:
In vitro HMPV antiviral activity was evaluated using the clinical isolate A2 strain TN 94-49 (obtained from Dr. John Williams, Vanderbilt University, Tennessee) and LLC-MK2 cells (ATCC #CCL-7), an immortalized kidney epithelial cell line from Macaca mulatta. Compounds were resuspended in dimethyl sulfoxide (DMSO) at 10 mM, serially diluted and added to a 384-well source plate. Subsequently, the compounds were diluted and transferred onto 384-well assay plates using the Echo-650 automated liquid handling system (Beckman Coulter, Indiana). The test compounds were assessed in duplicate at a top concentration of 2 μM followed by 2.5-fold serial dilutions to give a total of 10 concentration points. DMSO control wells were also included on the assay plates and were either infected or not, acting as positive and negative controls. A2 TN 94-49 virus infections were performed in-suspension with LLC-MK2 cells. The cells were washed twice with PBS and removed from the cell-culture flask with 0.25% trypsin-EDTA (Thermo Fisher Scientific, MA). The trypsin-EDTA was inactivated by resuspending in 2% fetal bovine serum (FBS) and OptiMEM (ThermoFisher Scientific, MA) containing 1% penicillin-streptomycin. Cells were pelleted by centrifuging for 5 minutes at 800 rpm, the supernatant was removed, and cells were re-suspended and washed in PBS plus 100 μg/mL CaCl2). This step was performed twice. Cells were then re-suspended in serum-free (SF)-OptiMEM containing 4 μg/mL TPCK-Trypsin (Sigma Aldrich, MO), 1% penicillin-streptomycin (ThermoFisher Scientific, MA) and 100 μg/mL CaCl2). Cells were counted and seeded at a density of 5,000 cells/well, 12.5 μL/well. Virus infections were done at a multiplicity of infection (MOI) of 0.005 with 12.5 μL added per well. Virus infections were performed in infection media which contained SF-OptiMEM, 100 μg/mL CaCl2) and 1% penicillin-streptomycin. HMPV viral stocks are suspended in infection media+5% glycerol, thus an equal volume of infection media+5% glycerol was added to uninfected wells to equalize the final % glycerol across all wells of the assay plate. The final concentration of TPCK-trypsin was 2 μg/mL. The assay plates were incubated at 37° C., 5% CO2 for 7 days. After 7 days incubation, 12.5 μL of ATP-Lite (PerkinElmer, MA) was added to each well and the raw luminescence values were determined using the Envision 2104 (Perkin Elmer, MA). The average of the raw luminescence values for the cells and virus only positive control wells was subtracted from all conditions tested and the percent cell health was determined by dividing these values by the average of the cells only negative control wells. EC50 values were then calculated by non-linear regression using a four-parameter curve logistic equation. The curve fit model employed was XLFit Dose Response One Site Model 200: y=(A+(B/(1+((x/C)^D)))), where A is the minimum y value, B is the maximum y value, C is the log EC50 value, and D is the slope factor.
On to `COc1cc(C(=O)NCC(O)(c2cc3c(c(-c4cc(Cl)c(F)cc4F)n2)OC[C@]3(C)C(N)=O)c2cc3ccccc3s2)cc2cn(C3CC3)nc12` (some centres unmarked) [Example 469], for which the EC50 is over 500 nM.

Consider `Cc1nc2ccc(C(=O)NC[C@@](O)(c3cccc(F)c3)c3cc4c(c(-c5ccc6c(c5Cl)OC(F)(F)O6)n3)OC[C@]4(C)C(N)=O)cc2o1` [Example 284], for which the EC50 is under 500 nM.

As for `C[C@]1(C(N)=O)COc2c1cc([C@@](O)(CNC(=O)c1ccc3nc(N)sc3c1)c1ccccc1)nc2-c1ccc2c(c1Cl)OC(F)(F)O2` [Example 256], the EC50 is under 500 nM.

`COc1cc(C(=O)NC[C@@](O)(c2ccc(F)cc2)c2cc3c(c(-c4ccc(F)c(Cl)c4Cl)n2)OC[C@]3(C)C(N)=O)cc2cn(C(F)F)nc12` [Example 42] yielded an EC50 of under 500 nM.

Turning to `COc1cc(C(=O)NC[C@@](O)(c2cccc(F)c2)c2cc3c(c(-c4cc(Cl)c(F)cc4F)n2)OC[C@]3(C)C(N)=O)cc2cn(C(F)F)nc12` [Example 134], the EC50 was under 500 nM.

As to `COc1cc(C(=O)NC[C@@](O)(c2ccsc2)c2cc3c(c(-c4cc(Cl)c(F)cc4F)n2)OC[C@]3(C)C(N)=O)cc2cn(C(F)F)nc12` [Example 174], the EC50 was under 500 nM.

The molecule `[2H]C([2H])([2H])c1nc2c(OC)cc(C(=O)NC[C@@](O)(c3ccc(F)cc3)c3cc4c(c(-c5ccc6c(c5Cl)OC(F)(F)O6)n3)OC[C@]4(C)C(N)=O)cc2s1` [Example 27] came in with an EC50 of under 500 nM.

As to `[2H]C([2H])([2H])c1nc2c(OC)cc(C(=O)NC[C@@](O)(c3ccccc3)c3cc4c(c(-c5ccc6c(c5)OC(F)(F)O6)n3)OC[C@]4(C)C(N)=O)cc2s1` [Example 9], the EC50 is under 500 nM.

On to `COc1cc(C(=O)NC[C@@](O)(c2ccsc2)c2cc3c(c(-c4cc(Cl)c(F)cc4F)n2)OC[C@]3(C)C(N)=O)cc2cn(C3CC3)nc12` [Example 173], for which the 50% effective concentration (EC50) is under 500 nM.

Take `COc1cc(C(=O)NC[C@@](O)(c2cc3c(c(-c4ccc(F)cc4O)n2)OC[C@]3(C)C(N)=O)C2CC2)cc2cn(C3CC3)nc12` [Example 64]: the EC50 was over 500 nM.

`[2H]c1c([2H])c([2H])c([C@](O)(CNC(=O)c2cc(OC)c3nn(C4CC4)cc3c2)c2cc3c(c(-c4cc(Cl)c(F)cc4F)n2)OC[C@]3(C)C(N)=O)c([2H])c1[2H]` [Example 169] registered an EC50 of under 500 nM.

Consider `COc1cc(C(=O)NC[C@@](O)(c2cc3c(c(-c4cc(Cl)c(F)cc4F)n2)OC[C@]3(C)C(N)=O)c2cnn[nH]2)cc2cn(C3CC3)nc12` [Example 181], for which the EC50 was over 500 nM.

With `COc1cc(C(=O)NC[C@](O)(c2cc3c(c(-c4ccc5c(c4Cl)OC(F)(F)O5)n2)OC[C@]3(C)C(N)=O)C(F)(F)F)cc2cn(C3CC3)nc12` [Example 52], the EC50 was over 500 nM.

Source of the values: patent US20240368174A1, “Antiviral Heterocyclic Compounds” (Enanta Pharmaceuticals, Inc., priority 2023, published 2024).
